± gives the expanded uncertainty stated by the source.
Conditions: 303.15 K, 101.33 kPa, Liquid; for viscosity: Capillary tube (Ostwald / Ubbelohde) method; for speed of sound: Linear variable-path acoustic interferometer; for mass density: Pycnometric method

viscosity [mPa·s] | speed of sound [m/s] | mass density [kg/m3] | SMILES
0.36 ± 0.04 | 1051.2 ± 1.9 | 652.9 ± 1 | CCCCCC [hexane]
0.46 ± 0.04 | 1252.2 ± 1.9 | 876.5 ± 1.1 | C1CCOC1 [tetrahydrofuran]
1.43 ± 0.04 | 1538.2 ± 2.1 | 975.6 ± 1.1 | NCc1ccccc1 [benzylamine]
1.08 ± 0.04 | 1321 ± 1.9 | 1022.4 ± 1.1 | C1COCCO1 [1,4-dioxane]

Source: the NIST ThermoML archive (doi:10.1016/j.fluid.2018.08.001)
